Test results published in patent US8008292B2, “Condensed benzamide compounds and inhibitors of vanilloid receptor subtype 1 (VR1) activity” (Japan Tobacco Inc., priority 2004, dated 2011).
Structures can show the parent of a compound that is named as a salt.

biological target: T1, human VR1 (Homo sapiens, UniProt Q8NER1); assay: Inhibition of Ca2+ entry in cells caused by proton, in rat glioma (C6BU1) cells stably expressing human VR1 (Fura 2 fluorescence); format: cell-based; conditions: inhibition of proton-induced Ca2+ entry
T1 construct: expressed in transfected cells
T1 sequence (Q8NER1 whole entry): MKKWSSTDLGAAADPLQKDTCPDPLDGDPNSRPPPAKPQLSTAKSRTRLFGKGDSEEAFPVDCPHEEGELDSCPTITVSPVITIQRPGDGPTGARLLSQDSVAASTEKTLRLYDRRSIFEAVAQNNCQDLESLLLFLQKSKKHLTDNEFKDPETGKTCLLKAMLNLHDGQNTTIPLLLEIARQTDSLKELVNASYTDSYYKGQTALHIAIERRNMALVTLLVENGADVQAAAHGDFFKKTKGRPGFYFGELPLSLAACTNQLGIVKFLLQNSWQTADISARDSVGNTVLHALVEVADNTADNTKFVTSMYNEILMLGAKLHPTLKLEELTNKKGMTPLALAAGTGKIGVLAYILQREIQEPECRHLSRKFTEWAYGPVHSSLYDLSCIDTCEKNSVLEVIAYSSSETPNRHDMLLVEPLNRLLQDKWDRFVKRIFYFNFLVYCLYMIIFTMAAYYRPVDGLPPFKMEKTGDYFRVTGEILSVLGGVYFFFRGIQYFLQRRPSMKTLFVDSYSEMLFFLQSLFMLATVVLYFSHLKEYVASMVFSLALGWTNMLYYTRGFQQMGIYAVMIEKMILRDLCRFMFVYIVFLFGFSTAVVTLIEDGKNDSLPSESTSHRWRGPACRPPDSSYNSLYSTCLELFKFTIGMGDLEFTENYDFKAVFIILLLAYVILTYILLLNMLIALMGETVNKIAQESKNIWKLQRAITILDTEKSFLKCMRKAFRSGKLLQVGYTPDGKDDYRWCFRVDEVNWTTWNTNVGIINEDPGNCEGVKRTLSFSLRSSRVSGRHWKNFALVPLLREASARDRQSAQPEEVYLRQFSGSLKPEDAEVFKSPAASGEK
Protocol: The assay for evaluation of VR1 inhibition by the inventive compounds will be described below. The assay was intended to evaluate in vitro inhibition of Ca^2+ entry in cells caused by proton, one of the VR1 agonists.
Rat glioma (C6BU1) cells stably expressing human VR1 were suspended in 20 mM MES buffer (at pH 6.8, contg. 20 mM 2-morpholinoethanesulfonate (referred to as MES hereinafter), 115 mM NaCl, 5 mM KCl, 1 mM MgCl2 and 14 mM D-glucose) to make a cell density of 1×10^6 cells/mL. A fluorescent dye, Fura 2-AMsolution (DojindoCorporate, Cat. No. 343-05401) was added to the suspension to make a 5 μM concentration thereof. Further, Pluronic F-127 (Wako Pure Chemical Industries, Ltd., Cat. No. P6866) was added to make a 0.1% content thereof. Then, the suspension was incubated at 37° C. for 30 min. The cells were harvested and washed three times with 20 mM MES buffer. The cells were suspended again to make a cell density of 5×10^5 cells/mL. A 500-μL portion of the suspension was taken with a cuvette (MC MEDICAL, INC., Cat. No. SSR3121), to which 10 μL of 20 mM MES buffer containing 250 mM CaCl2 was added to incorporate Ca^2+ into the cells. At the same time, 5 μL of a test compound solution (in a range of 100 μM to 10 nM in DMSO) was also added to provide a final concentration thereof in a range of 1 μM to 0.1 nM. Alternatively, 5 μL of DMSO was added as control to provide a final concentration of 1% DMSO. The suspension was set in an intracellular ionometer (CAF-110; JASCO) 10 min after those additions. The cells were stimulated with protons by addition of 60 μL of 20 mM MES buffer at pH 1.1 to the suspension to set its pH at 5.5. The activity of the test compound was determined as a difference between the minimum of fluorescence intensity before agonist stimulation and its maximum after the stimulation. The value of IC50 was derived from percentage of inhibition by the test compound compared with the control.
In the tables, the symbol “++” indicates an IC50 value less than 100 nM and the symbol “+” indicates an IC50 value of 100 nM to 1,000 nM inclusive.

`COc1cc(NC(=O)c2cccc3c2OCCN3c2ccc(C)cn2)ccc1C` [Example 1-172] was tested. Which IC50 did it give?
The IC50 was less than 100 nM.

With `CC(C)(C)c1ccc(NC(=O)c2cccc3c2OCCN3c2ccc(C(=O)O)cn2)cc1` [Example 1-133] as the compound, how does the IC50 read?
The IC50 was 100 to 1000 nM.

For `COc1cnc(N2c3cccc(C(=O)Nc4ccc(C(F)(F)F)cc4)c3OC[C@@H]2CO)c(Cl)c1` [Example 4-25], which IC50 is on record?
The IC50 was less than 100 nM.

With `CCC[C@H]1CC[C@H](NC(=O)c2cccc3c2OCCN3c2ccc(C)cn2)CC1` [Example 1-192] as the compound, how does the IC50 read?
The IC50 was less than 100 nM.

With `CCOc1cc(NC(=O)c2cccc3c2OCCN3c2ccc(C)cn2)ccc1C` [Example 1-087] as the compound, how does the IC50 read?
The IC50 was less than 100 nM.

With `O=C(Nc1ccc(OC(F)(F)F)cc1)c1cccc2c1OC(CO)CN2c1ncccc1Cl` (stereo not drawn) [Example 1-231] as the compound, how does the IC50 read?
Its IC50 is 100 to 1000 nM.

For `O=C(OCc1ccccc1)c1cccnc1N1CCOc2c(C(=O)Nc3ccc(OC(F)(F)F)cc3)cccc21` [Example 1-207], which IC50 is on record?
The IC50 was 100 to 1000 nM.

How did the IC50 turn out when `COCc1cnc(N2CCOc3c(C(=O)Nc4ccc(C(F)(F)F)cc4)cccc32)c(Cl)c1` [Example 2-09, 4-(3-chloro-5-methoxymethylpyridin-2-yl)-N-(4-trifluoromethylpheny)-3,4-dihydro-2H-benzo[1,4]oxazine-8-carboxamide] was run?
The IC50 was less than 100 nM.

How did the IC50 turn out when `N#Cc1cccnc1N1CCOc2c(C(=O)Nc3ccc(OC(F)(F)F)cc3)cccc21` [Example 1-203] was run?
The IC50 was less than 100 nM.

With `CC(O)c1cnc(N2CCOc3c(C(=O)Nc4ccc(C(F)(F)F)cc4)cccc32)c(Cl)c1` (single isomer, unassigned; (+)) [Example 2-12, (+)-N-(4-trifluoromethylphenyl)-4-{3-chloro-5-(1-hydroxyethyl)pyridin-2-yl}-3,4-dihydro-2H-benzo[1,4]oxazine-8-carboxamide] as the compound, how does the IC50 read?
Its IC50 is less than 100 nM.

`Cc1csc(N2CCOc3c(C(=O)Nc4ccc(OC(F)(F)F)cc4)cccc32)n1` [Example 5-5, 4-(4-methylthiazol-2-yl)-N-(4-trifluoromethoxyphenyl)-3,4-dihydro-2H-benzo[1,4]oxazine-8-carboxamide] was tested. Which IC50 did it give?
The IC50 was 100 to 1000 nM.

`NC(=O)c1cnc(N2CCOc3c(C(=O)Nc4ccc(OC(F)(F)F)cc4)cccc32)c(Cl)c1` [Example 1-227] was tested. Which IC50 did it give?
Its IC50 is less than 100 nM.

How did the IC50 turn out when `CC(O)c1cnc(N2CCOc3c(C(=O)Nc4ccc(C(F)(F)F)cc4)cccc32)c(Cl)c1` (single isomer, unassigned; (-)) [Example 2-13, (−)-N-(4-trifluoromethylphenyl)-4-{3-chloro-5-(1-hydroxyethyl)pyridin-2-yl}-3,4-dihydro-2H-benzo[1,4]oxazine-8-carboxamide] was run?
Its IC50 is less than 100 nM.

With `CC(=O)c1cc(NC(=O)c2cccc3c2OCCN3c2ccc(C)cn2)ccc1Cl` [Example 1-080] as the compound, how does the IC50 read?
Its IC50 is less than 100 nM.

`Cc1ccnc(N2CCOc3c(C(=O)Nc4ccc(C(C)(C)C)cc4)cccc32)c1` [Example 1-058, N-(4-tert-butylphenyl)-4-(4-methylpyridin-2-yl)-3,4-dihydro-2H-benzo[1,4]oxazine-8-carboxamide] was tested. Which IC50 did it give?
Its IC50 is 100 to 1000 nM.

`O=C(Nc1cc(Cl)c(Cl)c(Cl)c1)c1cccc2c1OCCN2c1ncc(CO)cc1Cl` [Example 2-21] was tested. Which IC50 did it give?
The IC50 was less than 100 nM.

With `O=C(Nc1cccc(C(F)(F)F)c1)c1cccc2c1OCCN2c1ncccc1Cl` [Example 1-027] as the compound, how does the IC50 read?
Its IC50 is less than 100 nM.

With `Cc1ccc(N2c3cccc(C(=O)Nc4ccc(Cl)c(C(F)(F)F)c4)c3OC[C@@H]2CO)nc1` [Example 4-37] as the compound, how does the IC50 read?
Its IC50 is less than 100 nM.

With `CC(C)(C)[C@H]1CC[C@H](NC(=O)c2cccc3c2OC[C@H](CO)N3c2ncccc2Cl)CC1` [Example 4-14] as the compound, how does the IC50 read?
The IC50 was less than 100 nM.

`Cc1cccnc1N1CCOc2c(C(=O)Nc3ccc(C(C)(C)C)cc3)cccc21` [Example 1-047] was tested. Which IC50 did it give?
Its IC50 is less than 100 nM.

`CC(C)(C)C1CCC(NC(=O)c2cccc3c2OCCN3c2ncc(CO)cc2Cl)CC1` (stereo not drawn) [Example 2-33] was tested. Which IC50 did it give?
Its IC50 is less than 100 nM.

Which IC50 does the source give for `Cc1ccc(N2c3cccc(C(=O)Nc4ccc(N5CCOCC5)c(F)c4)c3OC[C@@H]2CO)nc1` [Example 4-47] here?
The IC50 was less than 100 nM.

With `CC(=O)OCCN(c1ccc(NC(=O)c2cccc3c2OCCN3c2ccc(C)cn2)cc1F)C(C)C` [Example 1-165] as the compound, how does the IC50 read?
Its IC50 is less than 100 nM.

For `Cc1ccc(N2CCOc3c(C(=O)N[C@H]4CC[C@H](COCC(C)C)CC4)cccc32)nc1` [Example 1-189], which IC50 is on record?
The IC50 was less than 100 nM.

With `CCC(C)(O)c1ccc(NC(=O)c2cccc3c2OCCN3c2ncccc2Cl)cc1` (stereo not drawn) [Example 1-041, 4-(3-chloropyridin-2-yl)-N-[4-(1-hydroxy-1-methyl)propyl]phenyl-3,4-dihydro-2H-benzo[1,4]oxazine-8-carboxamide] as the compound, how does the IC50 read?
Its IC50 is 100 to 1000 nM.

How did the IC50 turn out when `Cc1ccc(N2c3cccc(C(=O)Nc4ccc(Br)c(F)c4)c3OC[C@@H]2CO)nc1` [Example 4-51] was run?
The IC50 was less than 100 nM.

How did the IC50 turn out when `Cc1cnc(N2c3cccc(C(=O)Nc4ccc(Cl)c(Cl)c4)c3OC[C@@H]2CO)s1` [Example 6-3, (S)-N-(3,4-dichlorophenyl)-3-hydroxymethyl-4-(5-methylthiazol-2-yl)-3,4-dihydro-2H-benzo[1,4]oxazine-8-carboxamide hydrochloride] was run?
The IC50 was less than 100 nM.

How did the IC50 turn out when `CCOc1ccc(NC(=O)c2cccc3c2OCCN3c2ccc(C)cn2)cc1` [Example 1-160] was run?
Its IC50 is less than 100 nM.

How did the IC50 turn out when `O=C(Nc1ccc(OC(F)(F)F)cc1)c1cccc2c1OCC(CO)N2c1ncccc1Cl` (stereo not drawn) [Example 4-52] was run?
The IC50 was less than 100 nM.

Which IC50 does the source give for `O=C(Nc1ccc(C(F)(F)F)cc1)c1cccc2c1OC[C@H](CO)N2c1ccccc1Cl` [Example 7-05] here?
The IC50 was less than 100 nM.

Which IC50 does the source give for `O=C(Nc1ccc(OC(F)(F)F)cc1)c1cccc2c1OCCN2c1ccc(OCCO)cn1` [Example 1-200] here?
The IC50 was 100 to 1000 nM.

How did the IC50 turn out when `CN1CCCc2ccc(NC(=O)c3cccc4c3OCCN4c3ncccc3Cl)cc21` [Example 1-033] was run?
Its IC50 is less than 100 nM.

`COc1ccc(NC(=O)c2cccc3c2OC[C@H](CO)N3c2ncccc2Cl)cc1C(F)(F)F` [Example 4-24] was tested. Which IC50 did it give?
The IC50 was less than 100 nM.

How did the IC50 turn out when `Cc1ccc(N2CCOc3c(C(=O)Nc4ccc(C)c(F)c4)cccc32)nc1` [Example 1-092] was run?
Its IC50 is less than 100 nM.

With `O=C(O)c1cnc(N2CCOc3c(C(=O)Nc4ccc(C(F)(F)F)c(F)c4)cccc32)c(Cl)c1` [Example 1-131] as the compound, how does the IC50 read?
Its IC50 is 100 to 1000 nM.

How did the IC50 turn out when `O=C(Nc1ccc(C(F)(F)F)cc1)c1cccc2c1OC[C@H](C(=O)O)N2c1ncccc1Cl` [Example 1-229] was run?
Its IC50 is 100 to 1000 nM.

With `COC(C)(C)c1ccc(NC(=O)c2cccc3c2OCCN3c2ccc(C)cn2)cc1` [Example 1-082] as the compound, how does the IC50 read?
The IC50 was less than 100 nM.

`O=C(Nc1ccc(OCC(F)(F)F)cc1)c1cccc2c1OCCN2c1ncc(CO)cc1Cl` [Example 2-30] was tested. Which IC50 did it give?
Its IC50 is less than 100 nM.

For `CC(C)Oc1ccc(NC(=O)c2cccc3c2OCCN3c2ncccc2Cl)c(F)c1` [Example 1-052], which IC50 is on record?
Its IC50 is less than 100 nM.

Which IC50 does the source give for `Cc1ccc(NC(=O)c2cccc3c2OCCN3c2ncccc2Cl)cc1` [Example 1-009] here?
The IC50 was less than 100 nM.

Which IC50 does the source give for `O=C(Nc1ccc(OC(F)(F)F)cc1)c1cccc2c1OC[C@H](CO)N2c1ccccc1Cl` [Example 7-04, (S)-4-(2-chlorophenyl)-3-hydroxymethyl-N-(4-trifluoromethoxyphenyl)-3,4-dihydro-2H-benzo[1,4]oxazine-8-carboxamide] here?
Its IC50 is less than 100 nM.

With `Cc1ccc(N2c3cccc(C(=O)Nc4ccc(N5CCOCC5)c(C(F)(F)F)c4)c3OC[C@@H]2CO)nc1` [Example 4-29] as the compound, how does the IC50 read?
The IC50 was less than 100 nM.

Which IC50 does the source give for `COc1ccc(N2c3cccc(C(=O)Nc4ccc(OC(F)(F)F)cc4)c3OC[C@@H]2CO)cc1` [Example 7-08] here?
Its IC50 is less than 100 nM.

For `COc1ccc(NC(=O)c2cccc3c2OC[C@H](CO)N3c2ccc(C)cn2)cc1C(F)(F)F` [Example 4-28], which IC50 is on record?
Its IC50 is less than 100 nM.

For `CC(C)c1ccc(NC(=O)c2cccc3c2OC[C@H](CO)N3c2ncccc2Cl)cc1` [Example 4-17], which IC50 is on record?
The IC50 was less than 100 nM.
